# Data from ChEMBL document CHEMBL2406976, “Discovery of Inhibitors of Burkholderia pseudomallei Methionine Aminopeptidase with Antibacterial Activity” (ACS Med Chem Lett, 2013).
# Active and inactive are the calls of the source. No cut-off for these calls is given here.
# Tests used:
# [1] = Inhibition of Burkholderia pseudomallei recombinant methionine aminopeptidase 1 using H-Met-Gly-Pro-7-amino-4-methylcoumarin hydrochloride as substrate measured for 10 mins by fluorescence assay in presence of human recombinant DPP4
# [2] = tested on: Burkholderia thailandensis; test: Antibacterial activity against Burkholderia thailandensis E264 assessed as bacterial growth inhibition at 1 mM after 24 hrs by two-fold dilution method relative to DMSO-treated control; format: functional; settings: for inhibition of growth at 1000 µM: E264, 24 h, read-out: GI
# [3] = molecular target: Methionine aminopeptidase 1 (Homo sapiens, UniProt P53582); test: Inhibition of human methionine aminopeptidase 1
# [4] = tested on: Burkholderia thailandensis; test: Bactericidal activity against Burkholderia thailandensis E264 assessed as cell death at 1 mM after 24 hrs by two-fold dilution method; format: functional
# [5] = tested on: Burkholderia thailandensis; test: Antibacterial activity against Burkholderia thailandensis E264 assessed as bacterial growth inhibition after 24 hrs by two-fold dilution method; format: functional; settings: E264, 24 h
# [6] = molecular target: Methionine aminopeptidase 2 (Homo sapiens, UniProt P50579); test: Inhibition of human methionine aminopeptidase 2
# [7] = tested on: Burkholderia pseudomallei; test: Antibacterial activity against Burkholderia pseudomallei Bp340 assessed as bacterial growth inhibition at 31.25 uM after 24 hrs by two-fold dilution method; format: functional, organism-based
# [8] = tested on: Burkholderia pseudomallei; test: Antibacterial activity against Burkholderia pseudomallei 1026b assessed as bacterial growth inhibition after 24 hrs by two-fold dilution method; format: functional, organism-based
# [9] = tested on: Burkholderia thailandensis; test: Bactericidal activity against Burkholderia thailandensis E264 assessed as cell death after 24 hrs by two-fold dilution method; format: functional; settings: E264, 24 h
# [10] = tested on: Burkholderia thailandensis; test: Antibacterial activity against Burkholderia thailandensis E264 assessed as bacterial growth inhibition at 0.5 mM after 24 hrs by two-fold dilution method relative to control; format: functional
# [11] = tested on: Burkholderia pseudomallei; test: Antibacterial activity against Burkholderia pseudomallei assessed as bacterial growth inhibition; format: functional
# Methionine aminopeptidase 2, sequence (P50579 whole entry): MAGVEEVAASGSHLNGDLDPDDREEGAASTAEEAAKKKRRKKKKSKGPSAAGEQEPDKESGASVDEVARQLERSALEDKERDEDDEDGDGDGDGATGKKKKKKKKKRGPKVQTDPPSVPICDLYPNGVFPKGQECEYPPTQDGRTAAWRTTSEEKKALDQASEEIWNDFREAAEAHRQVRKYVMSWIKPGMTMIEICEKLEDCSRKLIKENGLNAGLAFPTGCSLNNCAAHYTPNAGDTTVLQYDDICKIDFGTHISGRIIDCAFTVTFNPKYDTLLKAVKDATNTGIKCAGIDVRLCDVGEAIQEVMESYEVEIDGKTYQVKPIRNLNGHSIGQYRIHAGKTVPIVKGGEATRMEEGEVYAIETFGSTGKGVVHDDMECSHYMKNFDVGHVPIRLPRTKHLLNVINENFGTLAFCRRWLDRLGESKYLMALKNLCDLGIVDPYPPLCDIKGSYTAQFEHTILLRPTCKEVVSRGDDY
SMILES,IC50 [1] [µM],inhibition of growth at 1000 µM [2] [%],also measured
O=[N+]([O-])c1cc(CN2CCOCC2)c(O)c2ncccc12,60,–,–
Oc1c(CN2CCOCC2)cc(Cl)c2cccnc12,–,> 50,–
Oc1cccc2cccnc12 [OXYQUINOLINE],–,> 50,IC50 [3]: > 15 µM
CN1CCN(Cc2cc([N+](=O)[O-])c3cccnc3c2O)CC1,0.07,–,growth inhibition (GI) [4]: inactive; MIC [5]: 500 µM; growth inhibition (GI) [2]: Active
Oc1c(CN2CCSCC2)cc(Cl)c2cccnc12,–,> 50,–
O=S(=O)(O)c1ccc(O)c2ncccc12,–,9,IC50 [6]: > 15 µM
Nc1nnc(SCc2ccc(F)c(F)c2)[nH]1,> 250,≤ 26,–
CC(C)c1ccc(CSc2nnc(N)[nH]2)cc1,> 250,≤ 26,–
Cc1ccc(CSc2nnc(N)[nH]2)cc1,3.1,≤ 26,–
Oc1ccc(Cl)c2cccnc12 [CLOXYQUIN],–,> 50,–
CN(C)Cc1cc([N+](=O)[O-])c2cccnc2c1O,0.04,–,growth inhibition (GI) [2]: Active
O=[N+]([O-])c1ccc(O)c2ncccc12 [NITROXOLINE],–,–,growth inhibition (GI) [7]: Active; MIC [5]: 31 µM; growth inhibition (GI) [2]: Active; growth inhibition (GI) [8]: Active; MBC [9]: 250 µM
NC[C@H]1O[C@H](O[C@H]2[C@H](O)[C@@H](O[C@H]3O[C@H](CO)[C@@H](O)[C@H](N)[C@H]3O)[C@H](N)C[C@@H]2N)[C@H](O)[C@@H](O)[C@@H]1O,–,–,inhibition [10]: Active
CC(C)(O/N=C(\C(=O)N[C@@H]1C(=O)N2C(C(=O)[O-])=C(C[n+]3ccccc3)CS[C@H]12)c1csc(N)n1)C(=O)O [CEFTAZIDIME],–,–,MIC [11]: 1 µg/mL
CC(C)(C)c1ccc(CSc2nnc(N)[nH]2)cc1,> 250,≤ 26,–
Oc1c(CN2CCCCC2)cc(Cl)c2cccnc12,–,> 50,IC50 [3]: > 50 µM
CN1CCN(Cc2cc(Cl)c3cccnc3c2O)CC1,–,> 50,–
Nc1nnc(SCc2ccc(F)cc2)[nH]1,7,≤ 26,–
O=[N+]([O-])c1cc(CN2CCCC2)c(O)c2ncccc12,0.03,–,growth inhibition (GI) [2]: Active
Nc1nnc(SCc2ccc(Cl)cc2Cl)[nH]1,1,≤ 26,–
O=[N+]([O-])c1cc(CN2CCSCC2)c(O)c2ncccc12,> 250,–,–
Cc1ccc2cccc(O)c2n1 [8-HYDROXY QUINALDINE],–,> 50,IC50 [6]: > 15 µM; IC50 [3]: > 15 µM
